What all share (assay type): cell-based
For one data set, the system named is Leishmania donovani. The data set can be described thus: Assay 1 intramacrophage Leishmania donovani assay (potency readout). The note with it: amastigotes in PMA-treated THP-1 macrophages, 96 h, average number of amastigotes per cell, minimum threshold 4.3, read-out: pEC50 value against Leishmania donovani (converted). In short, it runs like this: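 THP-1 cells were differentiated with 20 nM PMA for 75 h, infected with amastigotes at MOI 5 for 16 h, then exposed to compound for 96 h in a ten-point 1:3 series from a 50 μM top concentration. Cells were fixed, DAPI/CellMask-stained and imaged by high-content microscopy. pEC50 was derived from amastigotes per cell and from THP-1 count.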

The nature of data set [1]: Assay 2 Trypanosoma cruzi intracellular assay, cytotoxicity against VERO cells. The note with it: African green monkey, Vero cells infected with T. cruzi trypomastigotes, total number of Vero cells, minimum threshold 4.3, read-out: cytotoxicity against VERO cells, pEC50 (converted). How it is done:
Compounds were dispensed into black 384-well assay plates (Corning) by acoustic dispensing (LabCyte ECHO). For potency determinations, ten-point one in three dilution curves were generated, with a top concentration of 50 μM. Vero cells were infected overnight with T. cruzi trypomastigotes in T225 tissue culture flasks at a multiplicity of infection of 5. Next, any remaining free trypomastigotes were washed away with serum free MEM media and the infected Vero cells were harvested by trypsinisation. The infected Vero cells were then plated into 384-well plates containing the compounds to be tested, at 4000 cells per well in MEM media with 1% FCS. After 72 h incubation at 37° C. in presence of 5% CO2, the plates were fixed with 4% formaldehyde for 20 minutes at room temperature and stained with 5 μg/ml Hoechst 33342. The plates were imaged on a Perkin Elmer Operetta high-content imaging system using a 20× objective. Images were analysed using the Columbus system (Perkin Elmer). The image analysis algorithm first identified the Vero nuclei followed by demarcation of the cytoplasm and identification of intracellular amastigotes. This algorithm reported mean number of parasites per Vero cell and total number of Vero cells.

The nature of data set [2]: Assay 6 Trypanosoma cruzi intracellular assay, cytotoxicity against H9c2 cells. The note with it: rat, H9C2 cardiomyocytes infected with T. cruzi trypomastigotes, total number of H9C2 cells, minimum threshold 4.3, read-out: cytotoxicity against H9c2 cells, pEC50 (converted). The method, then: Compounds were dispensed into black 384-well assay plates (Greiner) by acoustic dispensing (LabCyte ECHO). For potency determinations, eleven-point, one in three dilution curves were generated, with a top concentration of 50 μM. H9C2 rat cardiomyocytes cells were dispensed in T225 tissue culture flasks and after 4 hours they were infected during 18 hours with T. cruzi trypomastigotes in the same T225 tissue culture flasks at a multiplicity of infection of 1. Next, any remaining free trypomastigotes were washed away with PBS and the infected H9C2 cells were harvested by trypsinisation. The infected H9C2 cells were then plated into 384-well plates containing the compounds to be tested, at 2500 cells per well in DMEM media with 2% FBS, 1% Penicillin/Streptomocin, 2 mM L-Glutamine, 1 mM Na Pyruvate and 25 mM HEPES. After 72 h incubation at 37° C. in presence of 5% CO2, the plates were fixed and stained with 4% formaldehyde and 2 μM Draq5 for 3 hours at room temperature. The plates were imaged on a Perkin Elmer Opera high-content imaging system using a 20× air objective. Images were analysed using the Acapella building blocks system (Perkin Elmer). The image analysis algorithm first identified the H9C2 nuclei followed by demarcation of the cytoplasm and identification of intracellular amastigotes. This algorithm reported mean number of parasites per H9C2 cell, the percentage of infected H9C2 cells and the total number of H9C2 cells.

Structures are written as SMILES. Where only a bound is given, the exact number is not on record here.

With `O=C(Nc1ccc(F)c(-c2cn3nc(N4CCOCC4)cnc3n2)c1)N1CCCC1` [Example 1, N-(4-fluoro-3-(2-morpholinoimidazo[1,2-b][1,2,4]triazin-6-yl)phenyl)pyrrolidine-1-carboxamide], the EC50 in the data set on Leishmania donovani is 0.631 µM. In addition, the EC50 at 72 h in data set [1] and in data set [2] was above 50.1 µM in each case.

The values are drawn from patent US10065965B2, “Imidazo[1,2-B][1,2,4]triazine derivatives as antiparasitic agents” (GlaxoSmithKline Intellectual Property Development Limited, priority 2015, dated 2018).
